Data published in patent publication US8466089B2, “Pyrazole compounds, process for their production and herbicides containing them” (Ishihara Sangyo Kaisha, Ltd., priority 2008, dated 2013).
Where two headings read alike, the source gives them in different places.

Key:
[1] = test system: sorgo (Sorghum bicolor Moench) (var.: Lucky Sorgo); experiment: Test Example 6, soil column downward movement, sorgo bioassay; format: in vivo; settings: 14th day after sowing
Procedure: Soil (sterilized soil:sand=3:1) was packed (4 L) into a column (9.5 cm in diameter×40 cm in height, application area: 0.007 m^2), and tap water was dropped from above by a Peristaltic pump before application of the herbicide for the purpose of maintaining the soil moisture to be uniform. Then, 10 mL of a spray solution prepared so that each agent (Compound No. 2-1, the above Reference Compounds 1 and 2) would be at a concentration corresponding to 250 g/ha was dropwise applied by a pipette. After application, water was dropped again at a rate of 400 mL/hr for about 3 hours by means of a Peristaltic pump. After the dropping, the column was left to stand for 1 day, and then the column was vertically evenly divided and seeds of sorgo (Sorghum bicolor Moench) (var.: Lucky Sorgo) were sown in a row. On the 14th day after sowing, the state of growth of the plant was visually observed at 3 cm intervals from the application point of the agent, whereby the germination and the degree of growth were evaluated by a growth inhibition rate (%) of 0 (equivalent to the non-treated area) to 100% (complete kill) to obtain the results in Table 17.
From the above results, the growth inhibition rates of Reference Compounds No. 1 and No. 2 are observed in depths deeper than that of Compound No. 2-1. […] Whereas, Compound No. 2-1 stayed at a shallow portion of soil (in a layer of from 0 to 9 cm).

[2] = test system: corn (Zea mays L.); experiment: Test Example 4, foliar treatment, safety to crop plants versus Reference Compounds; format: in vivo; settings: 3.5 to 15 g/ha, 14th to 28th day after application, test written in present tense
Excerpt: Upland field soil is put into a 1/1,000,000 hectare pot, and seeds of various plants are sown. When the respective plants reach predetermined leaf stage ((1) velvetleaf (Abutilon theophrasti MEDIC.), (2) guineagrass (Panicum maximum Jacq.), (3) green foxtail (Setaria viridis L.), and (4) corn (Zea mays L.), a wettable powder of compound No. 2-1 of the above-mentioned present invention, an emulsifiable concentrate of the following Reference Compound 1 and a wettable powder of the following Reference Compound 2, prepared in accordance with a conventional preparation method, are weighed so that the active ingredients become the prescribed amounts 3.5 to 15 g/ha, and diluted with water in an amount corresponding to 300 liter per 1 hectare (containing 0.5 vol % of an agricultural spreader (MSO concentrate, manufactured by Cognis Corporation). The spray solutions thus prepared are applied for foliar treatment by a small sprayer.

CCn1ncc(C(=O)c2ccc(S(C)(=O)=O)c(OCCOC)c2C)c1OC(C)OC(=O)OC (centres unmarked) [Compound No. 2-1, 1-(1-Ethyl-4-(3-(2-methoxyethoxy)-2-methyl-4-(methylsulfonyl)benzoyl)-1H-pyrazol-5-yloxy)ethyl methyl carbonate]
inhibition at 250 g/ha ([1]; depth 0-3 cm, read-out: Growth inhibition rate (%) against sorgo, Depth (cm) from the applied surface 0-3): 70%
inhibition at 250 g/ha ([1]; depth 3-6 cm, read-out: Growth inhibition rate (%) against sorgo, Depth (cm) from the applied surface 3-6): 19%
inhibition at 250 g/ha ([1]; depth 6-9 cm, read-out: Growth inhibition rate (%) against sorgo, Depth (cm) from the applied surface 6-9): 10%
inhibition at 250 g/ha ([1]; depth 9-12 cm, read-out: Growth inhibition rate (%) against sorgo, Depth (cm) from the applied surface 9-12): 5%
inhibition at 250 g/ha ([1]; depth 12-15 cm, read-out: Growth inhibition rate (%) against sorgo, Depth (cm) from the applied surface 12-15): 3%
inhibition at 250 g/ha ([1]; depth 15-18 cm, read-out: Growth inhibition rate (%) against sorgo, Depth (cm) from the applied surface 15-18): 3%
inhibition at 250 g/ha ([1]; depth 18-21 cm, read-out: Growth inhibition rate (%) against sorgo, Depth (cm) from the applied surface 18-21): 2%
inhibition at 250 g/ha ([1]; depth 21-24 cm, read-out: Growth inhibition rate (%) against sorgo, Depth (cm) from the applied surface 21-24): 1%
inhibition at 250 g/ha ([1]; depth 24-27 cm, read-out: Growth inhibition rate (%) against sorgo, Depth (cm) from the applied surface 24-27): 0%
inhibition at 250 g/ha ([1]; depth 27-30 cm, read-out: Growth inhibition rate (%) against sorgo, Depth (cm) from the applied surface 27-30): 0%
safety to crop plants as compared to Reference Compounds [2]: excellent safety to crop plants
